Measurements as given in patent US12503475B2 (Centessa Pharmaceuticals (UK) Limited, priority 2020, dated 2025).

Target: T1, human orexin type 2 receptor (hOX2R) (Homo sapiens, UniProt O43614)
T1 construct: expressed in transfected cells
T1 sequence (O43614 1-444): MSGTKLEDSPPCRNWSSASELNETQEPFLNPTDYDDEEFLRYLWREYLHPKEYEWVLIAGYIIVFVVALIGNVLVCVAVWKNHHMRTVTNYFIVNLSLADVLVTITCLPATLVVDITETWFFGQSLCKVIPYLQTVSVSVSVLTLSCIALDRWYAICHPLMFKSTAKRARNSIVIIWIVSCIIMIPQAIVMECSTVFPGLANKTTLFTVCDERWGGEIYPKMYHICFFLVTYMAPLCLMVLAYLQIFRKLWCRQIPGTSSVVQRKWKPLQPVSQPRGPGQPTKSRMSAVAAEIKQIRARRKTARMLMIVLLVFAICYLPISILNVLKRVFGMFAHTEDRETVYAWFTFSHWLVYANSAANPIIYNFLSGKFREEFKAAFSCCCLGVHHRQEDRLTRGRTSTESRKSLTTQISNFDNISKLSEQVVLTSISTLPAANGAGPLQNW
Experiment: Measurement of orexin type 2 receptor agonist activity (FLIPR calcium fluorescence)
Type: cell-based
Details: CHO cells expressing hOX2R, FLIPR calcium fluorescence; for EC50: read-out: hOx2 pEC50 (converted); for Emax: CHO, read-out: hOx2 Emax (%)
Outline: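 Agonism was read as fluorescence in cells stably expressing human OX2R. E. is the response at 10 μM relative to orexin A as full agonist (100%).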

SMILES	EC50 [nM]	Emax [%]
COC1(C(=O)N2CC3(CC3)[C@H](NS(C)(=O)=O)[C@@H]2Cc2cccc(-c3ccccc3)c2)CC1 [Compound 60, N-((6S,7S)-6-([1,1′-biphenyl]-3-ylmethyl)-5-(1-methoxycyclopropane-1-carbonyl)-5-azaspiro[2.4]heptan-7-yl)methanesulfonamide]	10 to 100	80 to 90
CS(=O)(=O)N[C@@H]1[C@H](Cc2cccc(-c3ccccc3)c2)N(C(=O)[C@H](O)C2CC2)CC12CC2 [Compound 61, N-((6S,7S)-6-([1,1′-biphenyl]-3-ylmethyl)-5-((R)-2-cyclopropyl-2-hydroxyacetyl)-5-azaspiro[2.4]heptan-7-yl)methanesulfonamide]	1 to 10	90 to 100
CS(=O)(=O)N[C@@H]1[C@H](Cc2cccc(-c3ccccc3)c2)N(C(=O)[C@H](O)CF)CC12CC2 [Compound 62, N-((6S,7S)-6-([1,1′-biphenyl]-3-ylmethyl)-5-((S)-3-fluoro-2-hydroxypropanoyl)-5-azaspiro[2.4]heptan-7-yl)methanesulfonamide]	10 to 100	90 to 100
COC[C@@H](O)C(=O)N1CC2(CC2)[C@H](NS(C)(=O)=O)[C@@H]1Cc1cccc(-c2ccccc2)c1 [Compound 63, N-((6S,7S)-6-([1,1′-biphenyl]-3-ylmethyl)-5-((R)-2-hydroxy-3-methoxypropanoyl)-5-azaspiro[2.4]heptan-7-yl)methanesulfonamide]	10 to 100	80 to 90
CN(C)S(=O)(=O)N[C@@H]1[C@H](Cc2cccc(-c3ccccc3)c2F)N(C(=O)[C@H]2CCO2)CC12CC2 [Compound 64, N-((6S,7S)-6-((2-fluoro-[1,1′-biphenyl]-3-yl)methyl)-5-((R)-oxetane-2-carbonyl)-5-azaspiro[2.4]heptan-7-yl)-N,N-dimethylsulfuric diamide]	0.0794 to 1	90 to 100
CNS(=O)(=O)N[C@@H]1[C@H](Cc2cccc(-c3ccccc3)c2F)N(C(=O)[C@H]2CCO2)CC12CC2 [Compound 65, N-((6S,7S)-6-((2-fluoro-[1,1′-biphenyl]-3-yl)methyl)-5-((R)-oxetane-2-carbonyl)-5-azaspiro[2.4]heptan-7-yl)-N-methylsulfuric diamide]	1 to 10	90 to 100
CS(=O)(=O)N[C@@H]1[C@H](Cc2cccc(-c3cccc(F)c3)c2F)N(C(=O)[C@H]2CCO2)CC12CC2 [Compound 67, N-((6S,7S)-6-((2,3′-difluoro-[1,1′-biphenyl]-3-yl)methyl)-5-((R)-oxetane-2-carbonyl)-5-azaspiro[2.4]heptan-7-yl)methanesulfonamide]	1 to 10	90 to 100
CS(=O)(=O)N[C@@H]1[C@H](Cc2cccc(-c3ccccc3)c2F)N(C(=O)C2(O)CCC2)CC12CC2 [Compound 68, N-((6S,7S)-6-((2-fluoro-[1,1′-biphenyl]-3-yl)methyl)-5-(1-hydroxycyclobutane-1-carbonyl)-5-azaspiro[2.4]heptan-7-yl)methanesulfonamide]	0.0794 to 1	90 to 100
O=C([C@H]1CCO1)N1CC2(CC2)[C@H](NS(=O)(=O)C2CC2)[C@@H]1Cc1cccc(-c2ccccc2)c1F [Compound 69, N-((6S 7S)-6-((2-fluoro-[1,1′-biphenyl]-3-yl)methyl)-5-((R)-oxetane-2-carbonyl)-5-azaspiro[2.4]heptan-7-yl)cyclopropanesulfonamide]	0.0794 to 1	90 to 100
CS(=O)(=O)N[C@@H]1[C@H](Cc2cccc(-c3ccccc3)c2)N(C(=O)[C@H](O)C(F)F)CC12CC2 [Compound 70, N-((6S,7S)-6-([1,1′-biphenyl]-3-ylmethyl)-5-((S)-3,3-difluoro-2-hydroxypropanoyl)-5-azaspiro[2.4]heptan-7-yl)methanesulfonamide]	1 to 10	90 to 100
CNS(=O)(=O)N[C@@H]1[C@H](Cc2cccc(-c3ccccc3)c2)N(C(=O)[C@H]2CCO2)CC12CC2 [Compound 71]	1 to 10	90 to 100
Cn1ccc(S(=O)(=O)N[C@@H]2[C@H](Cc3cccc(-c4ccccc4)c3)N(C(=O)[C@H]3CCO3)CC23CC3)n1 [Compound 72, N-((6S,7S)-6-([1,1′-biphenyl]-3-ylmethyl)-5-((R)-oxetane-2-carbonyl)-5-azaspiro[2.4]heptan-7-yl)-1-methyl-1H-pyrazole-3-sulfonamide]	1 to 10	90 to 100
N#CCS(=O)(=O)N[C@@H]1[C@H](Cc2cccc(-c3ccccc3)c2)N(C(=O)[C@H]2CCO2)CC12CC2 [Compound 73]	10 to 100	90 to 100
COCCOCCS(=O)(=O)N[C@@H]1[C@H](Cc2cccc(-c3ccccc3)c2)N(C(=O)[C@H]2CCO2)CC12CC2 [Compound 74, N-((6S,7S)-6-([1,1′-biphenyl]-3-ylmethyl)-5-((R)-oxetane-2-carbonyl)-5-azaspiro[2.4]heptan-7-yl)-2-(2-methoxyethoxy)ethane-1-sulfonamide]	10 to 100	90 to 100
O=C([C@H]1CCO1)N1CC2(CC2)[C@H](NS(=O)(=O)c2c[nH]cn2)[C@@H]1Cc1cccc(-c2ccccc2)c1 [Compound 75, N-((6S,7S)-6-([1,1′-biphenyl]-3-ylmethyl)-5-((R)-oxetane-2-carbonyl)-5-azaspiro[2.4]heptan-7-yl)-1H-imidazole-4-sulfonamide]	10 to 100	90 to 100
O=C([C@H]1CCO1)N1CC2(CC2)[C@H](NS(=O)(=O)N2CCC2)[C@@H]1Cc1cccc(-c2ccccc2)c1 [Compound 76, N-((6S,7S)-6-([1,1′-biphenyl]-3-ylmethyl)-5-((R)-oxetane-2-carbonyl)-5-azaspiro[2.4]heptan-7-yl)azetidine-1-sulfonamide]	10 to 100	90 to 100
O=C([C@H]1CCO1)N1CC2(CC2)[C@H](NS(=O)(=O)C2COC2)[C@@H]1Cc1cccc(-c2ccccc2)c1 [Compound 77, N-((6S,7S)-6-([1,1′-biphenyl]-3-ylmethyl)-5-((R)-oxetane-2-carbonyl)-5-azaspiro[2.4]heptan-7-yl)oxetane-3-sulfonamide]	10 to 100	90 to 100
CCN(C)S(=O)(=O)N[C@@H]1[C@H](Cc2cccc(-c3ccccc3)c2)N(C(=O)[C@H]2CCO2)CC12CC2 [Compound 78, N-((6S,7S)-6-([1,1′-biphenyl]-3-ylmethyl)-5-((R)-oxetane-2-carbonyl)-5-azaspiro[2.4]heptan-7-yl)-N-methyl-N-ethylsulfuric diamide]	10 to 100	90 to 100
CS(=O)(=O)N[C@@H]1[C@H](Cc2cccc(-c3ccccc3)c2F)N(C(=O)NCCCF)CC12CC2 [Compound 79, (6S,7S)-6-((2-fluoro-[1,1′-biphenyl]-3-yl)methyl)-N-(3-fluoropropyl)-7-(methylsulfonamido)-5-azaspiro[2.4]heptane-5-carboxamide]	1 to 10	90 to 100
CS(=O)(=O)N[C@@H]1[C@H](Cc2cccc(-c3ccccc3)c2F)N(C(=O)N2CC[C@H]2CF)CC12CC2 [Compound 80, N-((6S,7S)-6-((2-fluoro-[1,1′-biphenyl]-3-yl)methyl)-5-((S)-2-(fluoromethyl)azetidine-1-carbonyl)-5-azaspiro[2.4]heptan-7-yl)methanesulfonamide]	0.0794 to 1	90 to 100
CN(CC(F)F)C(=O)N1CC2(CC2)[C@H](NS(C)(=O)=O)[C@@H]1Cc1cccc(-c2ccccc2)c1F [Compound 81, (6S,7S)-N-(2,2-difluoroethyl)-6-((2-fluoro-[1,1′-biphenyl]-3-yl)methyl)-N-methyl-7-(methylsulfonamido)-5-azaspiro[2.4]heptane-5-carboxamide]	0.0794 to 1	90 to 100
CN(CCF)C(=O)N1CC2(CC2)[C@H](NS(C)(=O)=O)[C@@H]1Cc1cccc(-c2ccccc2)c1F [Compound 82, (6S,7S)-6-((2-fluoro-[1,1′-biphenyl]-3-yl)methyl)-N-(2-fluoroethyl)-N-methyl-7-(methylsulfonamido)-5-azaspiro[2.4]heptane-5-carboxamide]	1 to 10	90 to 100
CS(=O)(=O)N[C@@H]1[C@H](Cc2cccc(-c3ccccc3)c2F)N(C(=O)NC2CC(F)(F)C2)CC12CC2 [Compound 83, (6S,7S)-N-(3,3-difluorocyclobutyl)-6-((2-fluoro-[1,1′-biphenyl]-3-yl)methyl)-7-(methylsulfonamido)-5-azaspiro[2.4]heptane-5-carboxamide]	10 to 100	90 to 100
C[C@H](F)CNC(=O)N1CC2(CC2)[C@H](NS(C)(=O)=O)[C@@H]1Cc1cccc(-c2ccccc2)c1F [Compound 84, (6S,7S)-6-((2-fluoro-[1,1′-biphenyl]-3-yl)methyl)-N-((S)-2-fluoropropyl)-7-(methylsulfonamido)-5-azaspiro[2.4]heptane-5-carboxamide]	0.0794 to 1	90 to 100
CC(C)NC(=O)N1CC2(CC2)[C@H](NS(C)(=O)=O)[C@@H]1Cc1cccc(-c2ccccc2)c1F [Compound 85]	0.0794 to 1	90 to 100
CS(=O)(=O)N[C@@H]1[C@H](Cc2cccc(-c3ccccc3)c2F)N(C(=O)NCCF)CC12CC2 [Compound 86, (6S,7S)-6-((2-fluoro-[1,1′-biphenyl]-3-yl)methyl)-N-(2-fluoroethyl)-7-(methylsulfonamido)-5-azaspiro[2.4]heptane-5-carboxamide]	1 to 10	90 to 100
